The test system of one test is T1, MpAC1-182.
T1 construct: gene MpAC; isolated catalytic domain (CHD), residues 1-182 of 233, YHS domain removed; N-terminal MRGSH6GS tag kept, C-terminal extra Ala; codon-optimized gene in E. coli BL21(DE3)[pRep4]; class III ACs act as head-to-tail dimers
As to the kind of experiment: cAMP formation determined by HPLC. It is filed as biochemical, Mycolicibacterium phlei. Particulars: 5 mM Mn2+, no Cu2+, pH 8.0, 30 °C; Hill coefficient 1.5 ± 0.2; read-out: SC50 [mM ATP]. The source says:
cAMP formation determined by HPLC on MpAC1-182

A further test deals with T2, MpAC1-233.
T2 construct: gene MpAC; full length, residues 1-233 (CHD plus C-terminal YHS domain); His-TEV tag removed, N-terminal GS dipeptide remains; codon-optimized gene in E. coli BL21(DE3)[pRep4]
As to the kind of experiment: cAMP formation determined by HPLC. The test is classed as biochemical, Mycolicibacterium phlei. Particulars: 5 mM Mn2+, no Cu2+, pH 8.0, 30 °C; Hill coefficient 0.9 ± 0.1; read-out: SC50 [mM ATP]. The source says:
cAMP formation determined by HPLC on MpAC1-233
A general note: cAMP levels reflect the balance of adenylyl cyclase and phosphodiesterase activity.

For test [1], the target named is full-length Mycobacterium phlei adenylyl cyclase, untagged MpAC_(1-233) (Mycobacterium phlei). Nature of the test: protein dependence of adenylyl cyclase activity; dimer to monomers; dissociation constant calculated from the protein dependance of the AC activity; data not shown.

Drawing on PMC4626032, “The YHS-Domain of an Adenylyl Cyclase from Mycobacterium phlei Is a Probable Copper-Sensor Module” (PLoS ONE, 2015), this text covers Km and Kd for 2 molecules.

As for `Nc1ncnc2c1ncn2[C@@H]1O[C@H](COP(=O)(O)OP(=O)(O)OP(=O)(O)O)[C@@H](O)[C@H]1O` [ATP], the results for the Km in the test with MpAC1-182 and in the test with MpAC1-233 were 0.9 ± 0.22 mM and 2.11 ± 0.54 mM, respectively.
With “full-length Mycobacterium phlei adenylyl cyclase, untagged MpAC_(1-233) (enzyme)”, the equilibrium dissociation constant (Kd) in test [1] is 0.16 µM.

In general, Kd refers to the concentration at which binding is half-saturated.
